# Source: US9561201B2, “Therapeutic compounds” (Fibrotech Therapeutics Pty Ltd, priority 2006, dated 2017)
# What was measured:
# cardiac fibroblasts = conditions: experimental model of diabetic cardiac disease [15]; cited from earlier work
# [1] = patients with Gilbert's syndrome UGT1A1 variant [19]; cited from earlier work
# [2] = Pilot study (toxicity assessment), 2 weeks oral gavage; format: in vivo, Sprague-Dawley (SD) rats; conditions: 2 weeks
# Experimental: A total of twenty male Sprague-Dawley (SD) rats weighing 200-250 g were randomised to either FT011 (Fibrotech Therapeutics Pty Ltd, Melbourne, Australia) or Tranilast (Pharm Chemical, Shanghai Lansheng Corporation, China) at the dose of 50 mg, 100 mg, 200 mg and 400 mg/kg/day by gavage twice daily (n=2-3 per group). A control group of animals were gavaged with vehicle (1% carboxy methyl cellulose). The study was conducted for 2 weeks. Animals were bled daily at one, four, and eight hours after oral gavage to measure the plasma concentration. Serum was also collected to assess renal and liver function at the end of the study (plasma creatine and urate, ALT and bilirubin). Rats were individually housed in metabolic cages at the end of the study, habituated for 2 to 3 hours, and urine collected over 24 hours. Animals continued to have free access to tap water and standard laboratory chow during this period. The biochemistry tests performed at the department of pathology, St Vincent's hospital. Major organs including lung, heart, liver, spleen and kidney were harvested and immersed fix with 10% neutral buffered formalin and then embedded paraffin for subsequent light microscope examination.
# [3] = system: mesangial cell line (1097); experiment: TGF-β induced 3H-proline incorporation in cultured rat mesangial cells (Example 2); format: cell-based, Sprague-Dawley rats; conditions: renal mesangial cells, from 30 to 100 μM
# Experimental: The anti-fibrotic effects of 3-methoxy-4-propargyloxybenzaldehyde (FT011) in a renal cell line were tested by measuring proline incorporation after transforming growth factor-β stimulation.
# A well-characterized cloned mesangial cell line (1097) isolated from Sprague-Dawley rats was used between passages 30 and 40. Cells were cultured in Dulbecco's Modified Eagle's (DME) medium (Invitrogen, Grand Island, N.Y.) with heat-inactivated fetal bovine serum (FBS), 100 u/mL penicillin and 100 ug/mL streptomycin in a humidified 5% CO2 atmosphere at 37° C.
# To compare the effects of tranilast and FT011 on collagen production in vitro, incorporation of tritiated proline was used. Mesangial cells were plated at low density into 24-well culture plates in DME/5% FBS and allowed to adhere overnight. The subconfluent cells were starved overnight in DME/0.5% FBS and […] L-ascorbic acid (Sigma-Aldrich). Tranilast or FT011 was then added to the wells, followed 4 hours later by L-[2,3,4,5-^3H]-proline, 0.5 μCi/well (Amersham) and TGF-β1, 5 ng/ml (R & D systems). Mesangial cells were harvested 48 hours post-stimulation, washed three times with ice cold PBS, and incubated with 10% trichloroacetic acid (TCA) for 30 minutes on ice, followed by a wash in ice cold 10% TCA. Cells were then solubilised in […] 1M NaOH. […]
smiles,measurement,setting,value
"COc1ccc(/C=C/C(=O)Nc2ccccc2C(=O)O)cc1OC [Analogue 1, (E)-2-[[3-(3,4-Dimethoxyphenyl)-1-oxo-2-propenyl]amino]benzoic acid, reference compound]",TGF-β-induced collagen synthesis in cardiac fibroblasts,cardiac fibroblasts,attenuate
same,drug-induced adverse effect,[1],hyperbilirubinemia
same,ALT,[2]; 50 mg/kg/day gavage,40.5 ± 4.5
same,Body weight,[2]; 50 mg/kg/day gavage,315 ± 19 Gram
same,Plasma Creatinine,[2]; 50 mg/kg/day gavage,43 ± 0.5 µmol/L
same,Plasma Urate,[2]; 50 mg/kg/day gavage,<0.09 mmol/L
same,ALT,[2]; 100 mg/kg/day gavage,41 ± 1
same,Body weight,[2]; 100 mg/kg/day gavage,298 ± 21 Gram
same,Plasma Creatinine,[2]; 100 mg/kg/day gavage,43 ± 3.5 µmol/L
same,Plasma Urate,[2]; 100 mg/kg/day gavage,<0.09 mmol/L
same,ALT,[2]; 200 mg/kg/day gavage,41 ± 4.6
same,Body weight,[2]; 200 mg/kg/day gavage,293 ± 10 Gram
same,Plasma Creatinine,[2]; 200 mg/kg/day gavage,45 ± 1 µmol/L
same,Plasma Urate,[2]; 200 mg/kg/day gavage,<0.09 mmol/L
same,ALT,[2]; 400 mg/kg/day gavage,40 ± 5
same,Body weight,[2]; 400 mg/kg/day gavage,314 ± 13 Gram
same,Plasma Creatinine,[2]; 400 mg/kg/day gavage,49 ± 7.8 µmol/L
same,Plasma Urate,[2]; 400 mg/kg/day gavage,<0.09 mmol/L
same,proline incorporation after TGF-β stimulation,[3],significantly reduce
